Data taken from US6495529B1 (Warner-Lambert Company, priority 1998, dated 2002).
Read-outs that look alike come from different tables or passages of the source.

Key:
α1-receptors = assay type: binding, dog; conditions: read-out: Alpha-1 Ki
Method: (§1) The lungs of mongrel dogs were separated from cartilaginous airways and major blood vessels, weighted, chopped and placed into 10 volumes of ice-cold buffered sucrose (50 mM Tris-HCl pH 7.4, 1 mM EGTA, 0.32 M Sucrose). The tissue was then homogenized in a Polytron tissue homogenizer. The homogenate was filtered through two layers of cheesecloth, and the filtrate was dounced three times using a Con-Turque Potter homogenizer. […] The supernatant was recentrifuged at 30,000×g for 30 min at 4° C. and the resulting pellet was washed and resuspended in 10 volumes of Tris buffer (50 mM Tris HCL, pH 7.4, 1 mM EGTA) and incubated at 37° C. for 30 min in a shaking water bath. The suspension was centrifuged at 4° C., at 30,000×g for 30 min and the resulting pellet washed in 10 volumes of Tris buffer. […] Protein concentration was then determined by the Lowry method and the final suspension was adjusted to 10 mg of protein/ml, aliquoted and stored at −90° C.
Nonspecific binding was determined for each concentration point in separate incubations, with 10 μM phentolamine. Each experimental point was determined in triplicate. […] All binding assay incubations were terminated by rapid dilution with 2 ml of ice-cold wash buffer (50 mM Tris-HCl, pH 7.4) and filtration through Whatman GF/B filters using Brandel receptor-binding harvester.
(§2) All data were analyzed with the aid of microcomputer nonlinear curve fitting programs (PRISM 2.0, Graphpad Software, San Diego Calif.).
(§3) The receptors resident in each of the three membrane preparations were evaluated by standard saturation analysis following the addition of increasing concentrations of the appropriate radioligand. […]

α2-receptors = assay: ALPHA-2 binding, p-125Iodoclonidine, canine brain (frontal cortex) membranes; parameters: species or system dog; conditions: for Kd: radioligand
Method: Membranes of mongrel dogs were harvested from the canine frontal cortex and prepared as described for lung except that the final membrane protein concentration was adjusted to 0.5 mg/ml.
Nonspecific binding was determined in separate incubations in the presence of 10 μM phentolamine. The final concentration of p-iodoclonidine was 44-45 pM in competition studies and between 50 pM and 10 nM in saturation experiments. Bound and free […] were separated and the bound quantitated as described above for the ICYP assays.
as §2
The receptors resident in each of the three membrane preparations were evaluated by standard saturation analysis following the addition of increasing concentrations of the appropriate radioligand.
The radio ligand added for subsequent α2-displacement assays was adjusted to evaluate only the high affinity receptor. Contributions from p-iodoclonidine binding to imidazoline receptors in the α2-displacement assay were evaluated with epinephrine.

[1] = Locomotor stimulant and depressant effects in mice; conditions: male, Swiss-Webster, mouse, in vivo, ip
Method: (§4) Male Swiss-Webster mice (HSD ND4, Harlan Sprague Dawley, Houston, Tex.) aged 2-3 months were used in these studies. Each dose group consisted of 8 mice. The mice were housed 2 to 4 per cage in 30.4×22.9×15.2 cm clear polycarbonate cages with food and water available ad libitum for at least one week prior to locomotor activity testing. The colony was maintained at 23±1° C., on a normal light-dark cycle beginning at 0700 hr. All testing took place during the light portion of the light-dark cycle.
(§5) Horizontal (forward movement) locomotor activity was measured using a standardized, optical activity monitoring system [Model KXYZCM (16), Omnitech Electronics, Columbus, Ohio]. Activity was monitored in forty 40.5×40.5×30.5 cm clear acrylic chambers that where housed in sets of two within larger sound-attenuating chambers. A panel of 16 infrared beams and corresponding photodetectors were spaced 2 cm apart along the sides and 2.4 cm above the floor of each activity chamber. A 7.5-W incandescent light above each chamber provided dim illumination via a rheostat set to 20% of full scale. Fans provided an 80-dB ambient noise level within the chamber.
(§6) (+)-Amphetamine was used as a positive control. The total horizontal distance traversed (cm) was recorded at 10 minute intervals for a 2-hour session. Separate groups of 8 mice were assigned to each dose or saline group, and dose-effect testing continued for each compound until maximal stimulant or depressant effects could be estimated. A separate control group was tested along with each compound.
(§7) Using TableCurve 2D v2.03 (Jandel Scientific), the mean average total distance traversed (cm/10 min) for that period was fit to a 3-parameter logistic peak function of log10 dose (with the constant set to the mean of the saline group), and the maximum effect estimated from the resulting curve. The ED50 (dose producing ½ maximal stimulant activity) was estimated from a linear regression against log10 dose of the ascending portion of the dose-effect curve. The stimulant efficacy was the peak effect of the compound (cm/10 min) as estimated from the logistic peak function, minus the mean control distance traveled (cm/10 min), and was expressed for each stimulant compound as a ratio to the stimulant efficacy determined for (+)-amphetamine.
(§8) The mean average total distance traversed (cm/10 min) for that period were fit to a linear function of log10 dose of the descending portion of the dose-effect curve. […] Efficacy was the ratio of maximal depressant effect to maximum possible depression for each compound (mean average total distance of the control group minus the lowest mean total distance, expressed as a ratio to the control group total distance).
(§9) Time course data for each compound were considered in 2-way analyses of variance with dose as a between-group and time as a within-group factor. The dose-effect data were considered in 1-way analyses of variance, and planned individual comparisons were conduced between each dose and the saline control group. Interaction studies were considered in 2-way analyses of variance, with Pretreatment and Test dose as the factors.

Swiss-Webster mice [2] = assay: Locomotor stimulant and depressant effects in mice; conditions: mice, i.p.; for locomotor depressant effect (in words) / locomotor stimulant effect (in words): 2-hour session
Method: as §4, §5, §6, §7, §8, §9

rats = assay: Dosage that raised mean arterial pressure 10% in rat; assay type: in vivo
Swiss-Webster mice [3] = conditions: for modification of stimulant or depressant effects by triprolidine pretreatment: mice pretreated with 0.01, 0.1 or 1.0 mg/kg triprolidine
[4] = system: New Zealand white rabbits; assay: Intraocular pressure (IOP) after topical application to rabbit eye; conditions: rabbit; for effect on IOP (in words): topical 1% and 2%, treated eye
[5] = system: New Zealand white rabbits; assay: Pupil diameter / mydriasis after topical application to rabbit eye; conditions: for mydriasis / effect on pupil diameter (in words): topical, rabbit
mongrel dogs = assay: Intravenous dose increasing mean arterial pressure 10% in anesthetized dogs; conditions: anesthetized dog, i.v.
[6] = system: histamine-challenged rats; assay: Nasal airway pressure in histamine-challenged rats; conditions: Investigation 1, rats
Sprague Dawley rats = assay: Nasal airway pressure in normal (non-histamine-challenged) rats; conditions: 100% dose i.v., non-histamine-challenged rats
β2-receptors = target: T1, β2-receptors (Canis lupus familiaris, UniProt P54833); assay: BETA-2 binding, 125Iodocyanopindolol (ICYP), canine lung membranes; parameters: species or system dog; conditions: radioligand
T1 construct: The lungs of mongrel dogs were separated from cartilaginous airways and major blood vessels; from tissue; host or cells: mongrel dog lung membranes
Method: as §1
Particulated were also prepared for β2 receptors using the identical procedure except the final protein concentration was adjusted to 0.1 mg/ml.
Nonspecific binding was determined in separate incubations in the presence of 2 μM dipropranolol. Each experimental point was determined in triplicate. […] Incubations were terminated as described above for the α1 assays. Filters were placed into polyethylene tubes and the bound ligand was determined by gamma spectrometry (Sano et al., 1993).
as §2, §3

[7] = Table 4, no unit in table, IC50 defined in μM, read-out: Alpha-2 IC50

T1 sequence (P54833 whole entry): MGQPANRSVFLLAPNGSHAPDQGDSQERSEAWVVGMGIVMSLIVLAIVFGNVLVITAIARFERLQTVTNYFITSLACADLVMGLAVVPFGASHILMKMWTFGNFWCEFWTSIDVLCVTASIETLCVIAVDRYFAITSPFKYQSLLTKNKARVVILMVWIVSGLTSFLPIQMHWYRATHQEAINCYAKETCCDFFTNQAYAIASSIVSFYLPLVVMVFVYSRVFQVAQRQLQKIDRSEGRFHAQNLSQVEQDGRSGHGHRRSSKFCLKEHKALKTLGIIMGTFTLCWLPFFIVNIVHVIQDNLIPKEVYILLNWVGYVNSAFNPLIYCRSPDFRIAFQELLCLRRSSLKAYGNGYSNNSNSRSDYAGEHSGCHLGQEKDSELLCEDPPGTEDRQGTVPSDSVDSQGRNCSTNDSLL

Structure (SMILES): CN[C@@H](C)[C@@H](O)c1ccccc1 (single isomer, unassigned) [(+)-pseudoephedrine]
- ED50 at 30 min [1]: 12.6 mg/kg
- locomotor depressant effect (in words) (Swiss-Webster mice [2]): some locomotor depression
- locomotor stimulant effect (in words) (Swiss-Webster mice [2]): negligible stimulation compared to (−)-ephedrine, but weak stimulation when comared to (+)-amphetamine
- reversal of locomotor depression by triprolidine (Swiss-Webster mice [3]; 25, 50 or 100 mg/kg test drug, following 0.01 mg/kg triprolidine): reversed
- reversal of locomotor depression by triprolidine (Swiss-Webster mice [3]; following 1.0 mg/kg triprolidine): no significant reversal
- modification of stimulant or depressant effects by triprolidine pretreatment (Swiss-Webster mice [3]): Significant effects for pretreatment with triprolidine
- effect on IOP (in words) [4]: slight acute elevation in IOP in the treated eye
- effect on IOP in the contralateral eye (in words) ([4]; topical): delayed elevation in IOP
- mydriasis / effect on pupil diameter (in words) [5]: produced mydriasis in the treated eye

Structure (SMILES): CN[C@H](C)[C@H](O)c1ccccc1 (single isomer, unassigned) [(−)-pseudoephedrine]
- ED50 at 30 min [1]: 14.6 mg/kg
- Depression Potency (ID50, dose resulting in ½ the maximal depressant effect) (Swiss-Webster mice [2]): 38.5 mg/kg
- locomotor depressant effect (in words) (Swiss-Webster mice [2]): some locomotor depression
- locomotor stimulant effect (in words) (Swiss-Webster mice [2]): negligible stimulation compared to (−)-ephedrine, but weak stimulation when comared to (+)-amphetamine
- modification of stimulant or depressant effects by triprolidine pretreatment (Swiss-Webster mice [3]): did not show significant modification of stimulant or depressant effects
- decongestant activity (in words) [6]: as good as, or superior to, several commercially available decongestants
- effect on IOP (in words) [4]: Little or no increase in intraocular pressure
- mydriasis / effect on pupil diameter (in words) [5]: produced mydriasis in the treated eye only

Structure (SMILES): CC(N)Cc1ccccc1 (single isomer, unassigned; (+)) [(+)-amphetamine]
- locomotor depressant effect (in words) (Swiss-Webster mice [2]): did not cause locomotor depression
- locomotor stimulant effect (in words) (Swiss-Webster mice [2]): dose- and time-dependent increase in the distance traversed
- onset of increased locomotion after injection (Swiss-Webster mice [2]; (−)-ephedrine: following 50 to 100 mg/kg): ≤ 10 min

Structure (SMILES): CN[C@H](C)[C@@H](O)c1ccccc1 [(+)-ephedrine]
- Depression Potency (ID50, dose resulting in ½ the maximal depressant effect) (Swiss-Webster mice [2]): 7.4 mg/kg
- Stimulation Potency (ED50, dose resulting in ½ the maximal stimulant effect) (Swiss-Webster mice [2]): 38.2 mg/kg

Structure (SMILES): CNC[C@H](O)c1ccc(O)c(O)c1 [Epinephrine, epinephrine]
- displacement of bound p-iodoclonidine (α2-receptors; check for imidazoline receptor labelling): easily displaced all bound p-iodoclonidine

Structure (SMILES): CC(C)(C)NCC(O)COc1cccc2[nH]c(C#N)c(I)c12 (stereo not shown) [ICYP, iodocyanopindolol]
- Bmax (β2-receptors; Saturation Analysis, Run 1): 149 femtomoles per mg protein
- Kd (β2-receptors; Saturation Analysis, Run 1): 0.0096 nM
- Bmax (β2-receptors; Saturation Analysis, Run 2): 142 femtomoles per mg protein
- Kd (β2-receptors; Saturation Analysis, Run 2): 0.0093 nM
- Bmax (β2-receptors; Saturation Analysis, Summary): 146 femtomoles per mg protein
- Kd (β2-receptors; Saturation Analysis, Summary): 0.0095 nM
- Bmax (β2-receptors; Scatchard Analysis, Run 1): 150 femtomoles per mg protein
- Kd (β2-receptors; Scatchard Analysis, Run 1): 0.0099 nM
- Bmax (β2-receptors; Scatchard Analysis, Run 2): 139 femtomoles per mg protein
- Kd (β2-receptors; Scatchard Analysis, Run 2): 0.0078 nM
- Bmax (β2-receptors; Scatchard Analysis, Summary): 145 femtomoles per mg protein
- Kd (β2-receptors; Scatchard Analysis, Summary): 0.0089 nM

Structure (SMILES): Clc1cc(I)cc(Cl)c1NC1=NCCN1 [p-iodoclonidine]
- Kd (α2-receptors; Saturation Analysis, read-out: Kd1 (high affinity)): 0.15 nM
- Kd (α2-receptors; Saturation Analysis, read-out: Kd2 (low affinity)): 3.01 nM
- Kd (α2-receptors; Scatchard Analysis, read-out: Kd1 (high affinity)): 0.15 nM
- Kd (α2-receptors; Scatchard Analysis, read-out: Kd2 (low affinity)): 0.87 nM

Structure (SMILES): Cc1ccc(/C(=C\CN2CCCC2)c2ccccn2)cc1 [triprolidine]
- effect on horizontal distance, triprolidine alone (Swiss-Webster mice [3]; 0.25 to 25 mg/kg, injected immediately prior to testing, 2-hour test): failed to affect horizontal distance
- effect on locomotion, triprolidine alone (Swiss-Webster mice [3]; 50 and 100 mg/kg): Dose-dependent depression of locomotion
